# Data taken from US11473145B2, “Methods for determining whether a patient suffering from rhabdomyolysis achieves a response with a TLR9 antagonist” (INSERM (INSTITUT NATIONAL DE LA SANTÉ ET DE LA RECHERCHE …, priority 2017, dated 2022).
# Entries after “also recorded” stand apart in the source; their conditions may differ.
# Key:
# Format in all cases: in vivo, human
# [1] = system: patients with lipin-1 disease; assay: Life quality questionnary PESDQL children
# Source text: (§1) We treated in 2016 two patients (P1, P2) with lipin-1 disease by hydroxychloroquine sulphate (plaquenil®) and two patients (P3, P4) with dantrolene sodium after obtaining the authorization by the CPP of Paris Descarte University (Comité pour la protection des personnes). Moreover the patient (P5) has been treated for one month by plaquenil® because of their cardiac dysfunction, their fatigability and their sleep disorders. Indeed we think that plaquenil® works well on the two patients treated (P1, P2) and P5's state was considered sufficiently serious to propose it. Plaquenil® was given at a dose of 6 mg/Kg/day into 1 intake (dose usually given in Lupus disease) to P1, P2 and P5.
# (§2) Patient 1 corrected their clinical muscle phenotype (Table 1). Physical maximum capacities were measured using six-minute walk (TC6′), Short-Form life quality by using Questionary (SF-36) to assess QOL for parent and for patient, and a self-assessment pain scale (EVA). […] Since then they have resumed treatment.
# [2] = system: Creatine kinase (CK); assay: Serum Creatine kinase (CK) level
# Source text: as §1
# (§3) Both patients 1 and 2 treated in vivo with Plaquenil® normalized their serum inflammatory profile in one month after the start of treatment (FIG. 1). IL-6 secretion increased in plasma when the two patients stopped their treatment (FIG. 1). The accumulation of mtDNA in plasma of the two patients before treatment decreases under treatment by Plaquenil® (FIG. 2). After Plaquenil® was stopped, the accumulation of mtDNA reappeared, then normalized when treatment was resumed. We observe a correlation between variations of IL-6 and mtDNA accumulation levels, and with the compliance of the treatment.
# as §2
# [3] = system: mitochondrial DNA (mtDNA); assay: Quantity of mitochondrial DNA (qPCR) in plasma; conditions: two patients (P1, P2)
# Source text: FIG. 2. Quantity of mitochondrial DNA (qPCR) in plasma of two patients.
# as §1, §3
# [4] = system: patients with lipin-1 disease; assay: Six-minute walk test (physical maximum capacities) in patients treated by Plaquenil
# Source text: as §1, §2
# [5] = system: patients with lipin-1 disease; assay: Clinical follow-up: rhabdomyolysis episodes, muscle phenotype and muscle pain
# Source text: as §1, §3, §2
# [6] = system: patients with lipin-1 disease; assay: Self-assessment pain scale (EVA)
# Source text: as §1, §2
# [7] = system: patients with lipin-1 disease; assay: Life quality questionnary PESDQL parent
# Source text: as §1, §2
# [8] = system: IL-6; assay: IL-6 secretion in serum measured by ELISA (serum inflammatory profile); conditions: for IL-6 concentration in serum: lipin-1 deficient patients
# Protocol: FIG. 1. Inflammatory profile in serum of lipin-1 deficient patients in vivo. Above: IL-6 secretion in serum was measured by ELISA.
# as §1, §3
# [9] = the two patients, treatment resumed, winter 2016-2017
structure (smiles),measurement,setting,value
"CCN(CCO)CCCC(C)Nc1ccnc2cc(Cl)ccc12 (stereo not shown) [Plaquenil®, hydroxychloroquine sulphate]",Questionnary (0: very well - 92: very bad) PESDQL children,"[1]; patient P1, M 2 of treatment, M 0 before treatment 26",P1: 12
same,Questionnary (0: very well - 92: very bad) PESDQL children,"[1]; patient P1, M 5 of treatment, M 0 26",P1: 11
same,Questionnary (0: very well - 92: very bad) PESDQL children,"[1]; patient P1, M 9, after M 6-M 8 interruption of treatment, M 0 26",P1: 38
same,Questionnary (0: very well - 92: very bad) PESDQL children,"[1]; patient P1, M 16, treatment resumed, M 0 26",P1: 8
same,Questionnary (0: very well - 92: very bad) PESDQL children,"[1]; patient P2, M 2 of treatment, M 0 before treatment 45",P2: 32
same,Questionnary (0: very well - 92: very bad) PESDQL children,"[1]; patient P2, M 5 of treatment, M 0 45",P2: 35
same,Questionnary (0: very well - 92: very bad) PESDQL children,"[1]; patient P2, M 9, after M 6-M 8 interruption of treatment, M 0 45",P2: 47
same,Questionnary (0: very well - 92: very bad) PESDQL children,"[1]; patient P2, M 16, treatment resumed, M 0 45",P2: 30
same,CK,"[2]; patient 1, rhabdomyolysis after treatment was stopped",160 000 U/L
same,CK,"[2]; patient 2, rhabdomyolysis after treatment was stopped",300 000 U/L
same,level of serum Creatine kinase (CK),"[2]; patients 1 and 2, under treatment",decreased
same,accumulation of mtDNA in plasma,[3]; after treatment was stopped,reappeared; also recorded: increases
same,accumulation of mtDNA in plasma,[3]; under treatment versus before treatment,decreases
same,accumulation of mtDNA in plasma,[3]; when treatment was resumed,normalized; also recorded: decreases again
same,Six-minute walk test (normal 560-740),"[4]; patient P1, M 2 of treatment, 6 mg/Kg/day, M 0 before treatment 450 m",P1: 540 m
same,Six-minute walk test (normal 560-740),"[4]; patient P1, M 5 of treatment, M 0 450 m",P1: 520 m
same,Six-minute walk test (normal 560-740),"[4]; patient P1, M 9, after M 6-M 8 interruption of treatment, M 0 450 m",P1: 539 m
same,Six-minute walk test (normal 560-740),"[4]; patient P1, M 16, treatment resumed, M 0 450 m",P1: 530
same,Six-minute walk test (normal 560-740),"[4]; patient P2, M 2 of treatment, 6 mg/Kg/day, M 0 before treatment 510 m",P2: 550 m
same,Six-minute walk test (normal 560-740),"[4]; patient P2, M 5 of treatment, M 0 510 m",P2: 595 m
same,Six-minute walk test (normal 560-740),"[4]; patient P2, M 9, after M 6-M 8 interruption of treatment, M 0 510 m",P2: 587 m
same,Six-minute walk test (normal 560-740),"[4]; patient P2, M 16, treatment resumed, M 0 510 m",P2: 590
same,clinical muscle phenotype,"[5]; Patient 1, under treatment",corrected
same,pain,"[5]; patient 2, under treatment",disappeared
same,walking ability,"[5]; patient 2, under treatment",did not improve markedly
same,new episode of rhabdomyolysis,"[5]; patients 1 and 2, during 6 months of treatment",did not have any new episode of rhabdomyolysis
same,muscle pain,[5]; [9],did not have muscle pain
same,rhabdomyolysis,[5]; [9],did not do rhabdomyolysis
same,rhabdomyolysis after stopping treatment,"[5]; the two patients, treatment stopped after 6 months (lack of compliance), hospitalized in intensive care",immediately underwent extensive rhabdomyolysis
same,Pain Evaluation (EVA) (4: not painful - 40: very painful),"[6]; patient P1, M 2 of treatment, M 0 before treatment 24",P1: 16
same,Pain Evaluation (EVA) (4: not painful - 40: very painful),"[6]; patient P1, M 5 of treatment, M 0 24",P1: 0
same,Pain Evaluation (EVA) (4: not painful - 40: very painful),"[6]; patient P1, M 9, after M 6-M 8 interruption of treatment, M 0 24",P1: 4
same,Pain Evaluation (EVA) (4: not painful - 40: very painful),"[6]; patient P1, M 16, treatment resumed, M 0 24",P1: 0
same,Pain Evaluation (EVA) (4: not painful - 40: very painful),"[6]; patient P2, M 2 of treatment, M 0 before treatment 18",P2: 12
same,Pain Evaluation (EVA) (4: not painful - 40: very painful),"[6]; patient P2, M 5 of treatment, M 0 18",P2: 0
same,Pain Evaluation (EVA) (4: not painful - 40: very painful),"[6]; patient P2, M 9, after M 6-M 8 interruption of treatment, M 0 18",P2: 16
same,Pain Evaluation (EVA) (4: not painful - 40: very painful),"[6]; patient P2, M 16, treatment resumed, M 0 18",P2: 0
same,Questionnary PESDQL parent (0: very well - 92: very bad),"[7]; patient P1, M 2 of treatment, M 0 before treatment 30",P1: 22
same,Questionnary PESDQL parent (0: very well - 92: very bad),"[7]; patient P1, M 5 of treatment, M 0 30",P1: 12
same,Questionnary PESDQL parent (0: very well - 92: very bad),"[7]; patient P1, M 9, after M 6-M 8 interruption of treatment, M 0 30",P1: 31
same,Questionnary PESDQL parent (0: very well - 92: very bad),"[7]; patient P1, M 16, treatment resumed, M 0 30",P1: 20
same,Questionnary PESDQL parent (0: very well - 92: very bad),"[7]; patient P2, M 2 of treatment, M 0 before treatment 40",P2: 42
same,Questionnary PESDQL parent (0: very well - 92: very bad),"[7]; patient P2, M 5 of treatment, M 0 40",P2: 33
same,Questionnary PESDQL parent (0: very well - 92: very bad),"[7]; patient P2, M 9, after M 6-M 8 interruption of treatment, M 0 40",P2: 50
same,Questionnary PESDQL parent (0: very well - 92: very bad),"[7]; patient P2, M 16, treatment resumed, M 0 40",P2: 35
same,IL-6 concentration in serum,[8]; under treatment,decreases
same,IL-6 concentration in serum,[8]; when the treatment is resumed,decreases again
same,serum inflammatory profile,"[8]; patients 1 and 2, one month after the start of treatment, 6 mg/Kg/day",normalized
same,IL-6 secretion (serum/plasma),"[8]; the two patients, after interruption of treatment",increased
